Data from patent US6407126B1 (priority 1997, dated 2002).
Where two headings read alike, the source gives them in different places.

System: Phytophthora infestans
Assay type: in vivo
Conditions: tomato leaves, infected next day, evaluated after 6 days
[1] = 50 ppm active ingredient in the spray liquor
[2] = 100 ppm active ingredient in the spray liquor

Compound	Efficacy in % of the untreated control (25 ppm active ingredient in the spray liquor) [%]	Efficacy in % of the untreated control [1] [%]	Efficacy in % of the untreated control [2] [%]	Efficacy in % of the untreated control (12.5 ppm active ingredient in the spray liquor) [%]
CC1(c2ccc(Oc3ccccc3)cc2)OC(=O)N(Nc2ccccc2)C1=O (stereo not drawn) [Compound VI]	70	70	80	
manganese ethylenebis(dithiocarbamate) (zinc complex) [Compound IIa]				70
O=C(Nc1ccccc1-c1ccc(F)cc1)c1cccnc1Cl [Compound I.1]		0	0	
